This note sets out measurements from ChEMBL document CHEMBL1201862, “PubChem BioAssay data set” (2004).

Molecules are shown by their SMILES.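 Test compounds were applied to cells in 96-well plates for 48 hours at 5 doses. Abbreviation: GI50, concentration required for 50% inhibition of growth.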 The source made the active and inactive calls. Cut-off read from the data, not from the text of the source: active = GI50 up to about 1.1 µM and inactive = higher.

Among the test systems are SK-MEL-28; K562; UACC-257; SK-MEL-5; NCI-H23; SNB-75; SK-MEL-2; 786-0; SN12C; HL-60; NCI-H460; MOLT-4; TK-10; SF-268; SF-295; OVCAR-3; SNB-19; IGROV-1; HCC 2998; NCI/ADR-RES.
Holding throughout (assay): NCI-60 cell line screen, 48 h

With `CN(CCO)c1nc(=O)c2c([nH]1)CCC2`, the GI50 is > 100 µM (inactive) in the assay on SK-MEL-28; > 100 µM (inactive) in the assay on K562; > 100 µM (inactive) with UACC-257; > 100 µM (inactive) in the assay with SK-MEL-5; > 100 µM (inactive) with NCI-H23; 43.9 µM (inactive) in the assay on SNB-75. In addition, the GI50 in the assay on SK-MEL-2, with 786-0, with SN12C, in the assay with HL-60, in the assay on NCI-H460 and in the assay on MOLT-4 was > 100 µM (inactive) each time. Also, the GI50 in the assay with TK-10, with SF-268, in the assay on SF-295, in the assay on OVCAR-3, with SNB-19 and in the assay on IGROV-1 was > 100 µM (inactive) throughout. In addition, the GI50 with HCC 2998 is > 100 µM (inactive).

Take `Cc1oc(N)c(S(=O)(=O)c2cc3ccccc3[n+]([O-])c2N)c1C`: the GI50 in the assay on NCI/ADR-RES, in the assay with SK-MEL-28, in the assay with UACC-257, in the assay with SK-MEL-5, in the assay with NCI-H23 and with SNB-75 was > 100 µM (inactive) in each case. Also, the GI50 with SK-MEL-2, in the assay with 786-0, with SN12C, in the assay with NCI-H460, in the assay on MOLT-4 and with TK-10 was > 100 µM (inactive) in each case. Besides, the GI50 with SF-268, in the assay on SF-295, in the assay with OVCAR-3, in the assay on SNB-19, in the assay with IGROV-1 and with HCC 2998 was > 100 µM (inactive) in each case.

As for `CCCCN(CCCC)C(=O)C(=O)C(C#N)c1ccc(C)cc1` (stereo not drawn), the GI50 in the assay with SK-MEL-28, in the assay on K562, in the assay with UACC-257, in the assay with SK-MEL-5, in the assay with NCI-H23 and in the assay with SNB-75 was > 100 µM (inactive) each time. The GI50 with SK-MEL-2, in the assay with 786-0, with SN12C, with HL-60, in the assay with NCI-H460 and in the assay on MOLT-4 was > 100 µM (inactive) in each case. The GI50 in the assay with TK-10, in the assay with SF-268, in the assay with SF-295, with OVCAR-3, with SNB-19 and with IGROV-1 was > 100 µM (inactive) in each case. The GI50 in the assay on HCC 2998 is > 100 µM (inactive).

In the case of `Cn1c(=O)c2c(nc(N/N=C3/SCC(=O)N3Cc3ccccc3)n2C)n(C)c1=O`, the GI50 in the assay with NCI/ADR-RES is > 100 µM (inactive); in the assay on SK-MEL-28 it was > 100 µM (inactive); with K562 it was < 0.01 µM (active); in the assay on UACC-257 it was > 100 µM (inactive); in the assay with SK-MEL-5, 34 µM (inactive); in the assay with NCI-H23, > 100 µM (inactive). Moreover, the GI50 with SK-MEL-2 was 58.7 µM (inactive); in the assay with 786-0, > 100 µM (inactive); in the assay on SN12C, > 100 µM (inactive); in the assay with NCI-H460 it was 38 µM (inactive); with TK-10, > 100 µM (inactive); with SF-268, 60.7 µM (inactive). The GI50 in the assay on SF-295 is > 100 µM (inactive); in the assay with OVCAR-3, 20.9 µM (inactive); in the assay with SNB-19 it was > 100 µM (inactive); with IGROV-1, 34.3 µM (inactive); with HCC 2998, > 100 µM (inactive).

Take `C=CCNC1=NC(=O)C(CC(=O)Nc2cccc(Cl)c2)S1` (stereo not drawn): the GI50 in the assay on SK-MEL-28, in the assay on K562, with UACC-257, with SK-MEL-5, in the assay on NCI-H23 and in the assay on SNB-75 was > 100 µM (inactive) each time. Further, the GI50 in the assay with SK-MEL-2, with 786-0, in the assay on SN12C, with HL-60, with NCI-H460 and in the assay with MOLT-4 was > 100 µM (inactive) throughout. Moreover, the GI50 with TK-10, in the assay with SF-268, in the assay with SF-295, in the assay on OVCAR-3, in the assay with SNB-19 and in the assay on IGROV-1 was > 100 µM (inactive) each time. Besides, in the assay with HCC 2998, the GI50 is > 100 µM (inactive).

As to `Cn1nc(C(=O)N2CC(CCl)c3c2cc(N)c2ccccc32)cc1NC(=O)Nc1cc(C(=O)N2CC(CCl)c3c2cc(N)c2ccccc32)nn1C` (stereo not drawn), the GI50 was > 100 µM (inactive) in the assay with NCI/ADR-RES; 0.108 µM (active) in the assay with SK-MEL-28; 0.231 µM (active) with K562; 0.521 µM (active) in the assay on UACC-257; 0.192 µM (active) in the assay on SK-MEL-5; 0.0225 µM (active) with NCI-H23. Moreover, the GI50 in the assay with SNB-75 is 0.0185 µM (active); in the assay with SK-MEL-2, 0.13 µM (active); with 786-0, 0.0547 µM (active); in the assay with SN12C, 0.0323 µM (active); with NCI-H460 it was < 0.01 µM (active); in the assay on MOLT-4, < 0.01 µM (active). The GI50 in the assay with TK-10 is > 100 µM (inactive); in the assay on SF-268 it was 0.0275 µM (active); with SF-295 it was 1.55 µM (inactive); with OVCAR-3, 0.201 µM (active); in the assay with SNB-19, 0.0621 µM (active); in the assay on HCC 2998, 1.21 µM (inactive).

As for `COc1ccc(NC(=O)CC(=O)n2nc(C)c(/N=N/c3ccccc3C(=O)O)c2C)cc1`, the GI50 was > 100 µM (inactive) with SK-MEL-28; > 100 µM (inactive) in the assay with K562; > 100 µM (inactive) with UACC-257; > 100 µM (inactive) in the assay with SK-MEL-5; > 100 µM (inactive) in the assay on NCI-H23; 33 µM (inactive) in the assay with SNB-75. In addition, the GI50 in the assay on SK-MEL-2 was > 100 µM (inactive); in the assay on 786-0 it was 77.3 µM (inactive); with SN12C it was > 100 µM (inactive); in the assay with HL-60, > 100 µM (inactive); in the assay on NCI-H460, > 100 µM (inactive); in the assay on MOLT-4, > 100 µM (inactive). Moreover, the GI50 in the assay on TK-10 is > 100 µM (inactive); in the assay with SF-268, > 100 µM (inactive); in the assay with SF-295, > 100 µM (inactive); with OVCAR-3, > 100 µM (inactive); with SNB-19 it was 80.7 µM (inactive); with IGROV-1, > 100 µM (inactive). The GI50 in the assay with HCC 2998 was > 100 µM (inactive).

As for `CC(=O)NC1=C(NCC(C)(C)C)C(=O)c2ccccc2C1=O`, the GI50 was > 100 µM (inactive) in the assay with SK-MEL-28; 38.2 µM (inactive) in the assay on K562; 50.2 µM (inactive) with UACC-257; 40.2 µM (inactive) in the assay with SK-MEL-5; 56.5 µM (inactive) in the assay with NCI-H23; 96.6 µM (inactive) in the assay on SNB-75. Also, the GI50 is 69 µM (inactive) in the assay on SK-MEL-2; > 100 µM (inactive) in the assay with 786-0; > 100 µM (inactive) in the assay on SN12C; 32.1 µM (inactive) with HL-60; 98.4 µM (inactive) with NCI-H460; 57.3 µM (inactive) in the assay on MOLT-4. For the same compound, the GI50 in the assay with TK-10 was > 100 µM (inactive); in the assay on SF-268, > 100 µM (inactive); in the assay on SF-295 it was > 100 µM (inactive); in the assay on OVCAR-3, 55.2 µM (inactive); with SNB-19, > 100 µM (inactive); with IGROV-1, > 100 µM (inactive). Besides, in the assay on HCC 2998, the GI50 was > 100 µM (inactive).

As for `CN1COCc2c1ccc1cc3ccc4c(c3nc21)COCN4S(C)(=O)=O`, the GI50 with NCI/ADR-RES, in the assay on SK-MEL-28, in the assay on K562, in the assay on UACC-257, with SK-MEL-5 and with NCI-H23 was > 100 µM (inactive) throughout. The GI50 in the assay with SNB-75 is 20 µM (inactive); in the assay on 786-0 it was 73.6 µM (inactive); in the assay with SN12C, > 100 µM (inactive); with NCI-H460, > 100 µM (inactive); in the assay on MOLT-4, > 100 µM (inactive); in the assay on TK-10, > 100 µM (inactive). Besides, the GI50 in the assay on SF-268, with SF-295, with OVCAR-3, in the assay with SNB-19, with IGROV-1 and in the assay with HCC 2998 was > 100 µM (inactive) in each case.

As to `COc1ccccc1-c1cc(O)c2c(C)cc(C)nc2n1`, the GI50 in the assay with NCI/ADR-RES was 54.7 µM (inactive); in the assay with SK-MEL-28 it was > 100 µM (inactive); in the assay on K562 it was 67.9 µM (inactive); with UACC-257 it was 50.5 µM (inactive); with NCI-H23, 56.1 µM (inactive); with SK-MEL-2 it was 45.9 µM (inactive). For the same compound, the GI50 in the assay with SN12C is 70.1 µM (inactive); with MOLT-4, 30 µM (inactive); in the assay on TK-10 it was > 100 µM (inactive); in the assay with SF-268, 84.3 µM (inactive); with SNB-19 it was 73.3 µM (inactive); in the assay with IGROV-1, 30.5 µM (inactive). In the assay on HCC 2998, the GI50 is > 100 µM (inactive).

`Cc1ccc(S(=O)(=O)NC(=O)Nc2nc(Cl)cc(Cl)n2)cc1`: the GI50 is > 100 µM (inactive) in the assay on SK-MEL-28; 62.2 µM (inactive) in the assay with K562; 19.2 µM (inactive) with UACC-257; > 100 µM (inactive) with SK-MEL-5; > 100 µM (inactive) in the assay with NCI-H23; > 100 µM (inactive) in the assay on SNB-75. The GI50 in the assay with SK-MEL-2 is > 100 µM (inactive); in the assay with 786-0, > 100 µM (inactive); in the assay on SN12C, > 100 µM (inactive); in the assay on HL-60, > 100 µM (inactive); with NCI-H460 it was > 100 µM (inactive); in the assay with MOLT-4, 57.7 µM (inactive). Further, the GI50 with TK-10, in the assay with SF-268, with SF-295, in the assay on OVCAR-3, in the assay on SNB-19 and in the assay on IGROV-1 was > 100 µM (inactive) throughout. Further, in the assay on HCC 2998, the GI50 is 28.3 µM (inactive).
